# Like-named read-outs stand apart in the source and are kept apart here.
# How the values were obtained:
# [1] = human being; Osamu et al. 1986; cited from earlier work
# bovine thrombin [2] = biological target: T1, bovine thrombin (Bos taurus, UniProt P00735); conditions: for Ki: read-out: Inhibitory activity for thrombin, Ki, bovine thrombin, pH 7.8, initial velocity, reaction started with enzyme;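 as to all read-outs here: bovine thrombin cleaving the chromogenic substrate Chromozym TH, with para-nitroaniline release tracked as absorbance change over time to give initial rates, in Tris buffer at pH 7.8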
# From the text: (§1) The thrombin inhibitory effect of the compound of formula (I) according to the present invention can be identified by determination of a dissociation constant Ki represented by the following equation according to the known method described in literature [see, Methods in enzymology V. 80,p341-361;Biochemistry 27,p2144-2151 (1988)].
# (§2) The dissociation constant Ki denotes the degree of dissociation of the enzyme-thrombin inhibitor complex. […] Such dissociation constant can be determined by reacting thrombin with a certain substrate which develops a color when it is hydrolyzed by the action of thrombin, and then measuring the degree of color development as a function of time by means of spectrophotometry.
# (§3) Chromozym TH is hydrolyzed by thrombin to produce yellow para-nitroaniline. Accordingly, the amount of yellow para-nitroaniline thus produced can be measured as the change of absorbance in the course of time to determine the thrombin inhibitory activity of the compound according to the present invention. That is, the enzyme activity can be determined from the rate of change in absorbance and then can be directly connected with the ability of the thrombin inhibitor to inhibit the enzyme activity (see, Methods in Enzymology, V. 80,p341-361,Biochemistry 27, p2144-2151, 1988).
# (§4) The ability of the compound according to the present invention to inhibit the thrombin activity was determined as described in the following.
# (§5) 1160 μl of 0.1M tris buffered solution (pH 7.8) containing 150 mM NaCl and 0.1% PEG 8000 (polyethylene glycol, molecular weight about 8,000) was added to a 1.5 ml cuvette. Chromozym TH was dissolved in dimethylsulfoxide(DMSO) in the concentration of 10mM and the resulting solution was diluted with the said tris buffered solution to the concentration of 0.1 mM, which was then used as the substrate solution. 225 μl of 0.1 mM substrate solution thus prepared was added to the cuvette. The inhibitor solution was prepared by dissolving the thrombin inhibitor compound according to the present invention in dimethylsulfoxide in the concentration of 10 mg/ml and then diluting the resulting solution with the said tris buffered solution to the concentration of 0.1 mg/ml, 0.01 mg/ml, 0.001 mg/ml and 0.0001 mg/ml. The resulting inhibitor solution was taken in an amount corresponding to 0 to 10 μg as the inhibitor and then diluted with tris buffered solution to make the total volume of 100 μl which was added to the cuvette.
# (§6) 15 μl of bovine thrombin solution dissolved in above tris buffered solution in the concentration of 0.1 mg/ml was added to the cuvette to initiate the enzyme hydrolysis reaction. The amount of para-nitroaniline produced for 2 minutes from the moment the enzyme is added was monitored by measuring the absorbance at 381 nm. The continuous spectrum of absorbance to reaction time was depicted. The same experiments were conducted for various concentration of the inhibitor to obtain the continuous spectrum.
# (§7) In each spectrum, the initial velocity Vi was obtained from the slope within initial 30 seconds of the reaction time and then a graph for the reciprocal value of initial velocity(1/Vi) to the inhibitor concentration was depicted. From the graph, the primary equation satisfying the points depicted thereon was obtained and then the value Ki was calculated from the x intercept of the primary equation using the enzyme reaction equation.
# (§8) The velocity constant Ks was obtained using the same solution in the same concentration as in determination of the value Ki but using the following experimental procedure.
# trypsin = biological target: T2, trypsin (Bos taurus, UniProt P00760); assay: biochemical; type: biochemical; conditions: 20 μM substrate; read-out: Inhibitory activity for trypsin, Ki
# T2 sequence (P00760 24-246): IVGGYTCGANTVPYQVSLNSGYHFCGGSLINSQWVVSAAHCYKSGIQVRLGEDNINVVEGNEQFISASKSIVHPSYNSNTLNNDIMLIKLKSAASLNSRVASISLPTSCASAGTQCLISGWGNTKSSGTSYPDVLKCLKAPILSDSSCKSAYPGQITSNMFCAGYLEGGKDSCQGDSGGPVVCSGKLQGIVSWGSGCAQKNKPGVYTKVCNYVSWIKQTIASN
# Method: To identify the selectivity for thrombin over trypsin of the compound of the present invention, the inhibitory activity for trypsin of the compound of formula (I) is measured as Ki value according to the same method as the above method for determination of thrombin inhibitory activity, and then the ratio of the activity for trypsin to the activity for thrombin is calculated. In this case, the procedure for determination of inhibitory activity for trypsin is substantially identical to that for thrombin, except that N-benzoyl-Val-Gly-Arg para-nitroanilide hydrochloride is used as the substrate.
# As the substrate 20μM solution of N-benzoyl-Val-Gly-Arg-p-nitroanilide hydrochloride was used, and the inhibitor was used in various concnetrations within the range of […]. In addition, trypsin was dissolved in 0.1N HCl, adjusted to the concentration of 45 μg/ml with the said tris buffered solution just before the experiment, and then used in an amount of 40μl. As in the experiment for thrombin, a total volume of the reaction solution was 1.5 ml and the remaining procedure was conducted in the same manner.
# bovine thrombin [3] = biological target: T1, bovine thrombin; assay: biochemical
# From the text: as §1, §2, §3, §4, §5, §6, §7, §8
# thrombin over trypsin = conditions: cited from earlier work
# [4] = literature, cited from earlier work
Ki (trypsin),Ki (bovine thrombin [3]),Compound,other results
,,CC1CNc2c(cccc2S(=O)(=O)N[C@@H](CCCNC(=N)N)C(=O)N2CC[C@@H](C)C[C@@H]2C(=O)O)C1 (stereo partly drawn) [Argatroban],elimination half-life [1]: 40 min
,,"CCCCN(C)C(=O)[C@H](Cc1ccc(C(=N)NN)cc1)NS(=O)(=O)c1ccc2ccccc2c1 [Example 2, (S)-N-butyl-N-methyl-3-(4-amidrazonophenyl)-2-(2-naphthylsulfonylamino)propionamide]",Ki (bovine thrombin [2]): 41 nM
,,"CCCN(C(=O)[C@H](Cc1ccc(C(=N)NN)cc1)NS(=O)(=O)c1ccc2ccccc2c1)C1CCCC1 [Example 3, (S)-N-cyclopentyl-N-propyl-3-(4-amidrazonophenyl)-2-(2-naphthylsulfonylamino)propionamide]",Ki (bovine thrombin [2]): 93 nM
,,"CCCCN(C(=O)[C@H](Cc1ccc(C(=N)NN)cc1)NS(=O)(=O)c1ccc2ccccc2c1)C1CCCC1 [Example 5, (S)-N-cyclopentyl-N-butyl-3-(4-amidrazonophenyl)-2-(2-naphthylsulfonylamino)propionamide]",Ki (bovine thrombin [2]): 231 nM
363000 nM,13.8 nM,"CNC(=N)c1ccc(C[C@H](NS(=O)(=O)c2ccc3ccccc3c2)C(=O)N(C)C2CCCC2)cc1 [Example 7, (S)-N-cyclopentyl-N-methyl-3-[4-(methylamidino)phenyl]-2-(2-naphthylsulfonylamino)propionamide]",
,,"N=C(NN)c1ccc(C[C@H](NS(=O)(=O)c2ccc3ccccc3c2)C(=O)N(O)C2CCCC2)cc1 [Example 10, (S)-N-cyclopentyl-N-hydroxy-3-(4-amidrazonophenyl)-2-(2-naphthylsulfonylamino)propionamide]",Ki (bovine thrombin [2]): 367 nM
,,"CN(C(=O)[C@H](Cc1ccc(C(=N)NN)cc1)NS(=O)(=O)c1ccc2ccccc2c1)C1CCCCC1 [Example 15, (S)-N-cyclohexyl-N-methyl-3-(4-amidrazonophenyl)-2-(2-naphthylsulfonylamino)propionamide]",Ki (bovine thrombin [2]): 152 nM
,,"CN(C(=O)[C@H](Cc1ccc(C(=N)NN)cc1)NS(=O)(=O)c1ccc2ccccc2c1)C1CC1 [Example 16, (S)-N-cyclopropyl-N-methyl-3-(4-amidrazonophenyl)-2-(2-naphthylsulfonylamino)propionamide]",Ki (bovine thrombin [2]): 247 nM
3980 nM,11 nM,"CN(C)c1cccc2c(S(=O)(=O)N[C@@H](Cc3ccc(C(=N)NN)cc3)C(=O)N(C)C3CCCC3)cccc12 [Example 18, (S)-3-[4-(amidrazono)-phenyl]-N-cyclopentyl-N-methyl-2-(5-dimethylamino-naphthalene-1-sulfonylamino)-propionamide]",
5250 nM,5.3 nM,"COc1cccc2c(S(=O)(=O)N[C@@H](Cc3ccc(C(=N)NN)cc3)C(=O)N(C)C3CCCC3)cccc12 [Example 19, (S)-3-[4-(amidrazono)-phenyl]-N-cyclopentyl-N-methyl-2-(5-methoxy-naphthalene-1-sulfonylamino)-propionamide]",
2300 nM,21.7 nM,"COc1cc2ccc(S(=O)(=O)N[C@@H](Cc3ccc(C(=N)NN)cc3)C(=O)N(C)C3CCCC3)cc2cc1OC [Example 20, (S)-3-[4-(amidrazono)-phenyl]-N-cyclopentyl-N-methyl-2-(6,7-dimethoxy-naphthalene-2-sulfonylamino)-propionamide]",
> 100000 nM,25 nM,"CNC(=N)c1ccc(C[C@H](NS(=O)(=O)c2cccc3c(N(C)C)cccc23)C(=O)N(C)C2CCCC2)cc1 [Example 21, (S)-3-[4-(methylamidino)-phenyl]-N-cyclopentyl-N-methyl-2-(5-dimethylamino-naphthalene-1-sulfonylamino)-propionamide]",
21700 nM,2590 nM,"CN(C(=O)[C@H](Cc1ccc(C(=N)NN)cc1)NC(=O)COc1cccc2ccccc12)C1CCCC1 [Example 23, (S)-3-[4-(amidrazono)-phenyl]-N-cyclopentyl-N-methyl-2-[2-(naphthalen-1-yl-oxy)acetylamino]-propionamide]",
5790 nM,11 nM,"CS(=O)(=O)N1CCN(C(=O)[C@H](Cc2ccc(C(=N)NN)cc2)NS(=O)(=O)c2ccc3ccccc3c2)CC1 [Example 50, (S)-naphthalene-2-sulfonic acid [1-(4-amidrazono)benzyl-2-(4-methylsulfonyl-piperazinyl)-2-oxoethyl]amide]",
,10000 nM,"N=C(NN)c1ccc(C[C@H](NS(=O)(=O)c2ccc3ccccc3c2)C(=O)N2CCN(c3cccc(C(F)(F)F)c3)CC2)cc1 [Example 55, (S)-naphthalene-2-sulfonic acid [1-(4-amidrazono)-benzyl-2-oxo-2-[-4-(3-trifluoromethyl-phenyl)-piperazinyl]-ethyl]-amide]",
,280 nM,"CC(=O)N1CCN(C(=O)[C@H](Cc2ccc(C(=N)NN)cc2)NS(=O)(=O)c2ccc3ccccc3c2)CC1 [Example 56, (S)-naphthalene-2-sulfonic acid [2-(4-acetyl-piperazinyl)-1-(4-amidrazono)benzyl-2-oxoethyl]amide]",
,88 nM,"N=C(NN)c1ccc(C[C@H](NS(=O)(=O)c2ccc3ccccc3c2)C(=O)N2CCN(CCO)CC2)cc1 [Example 57, (S)-naphthalene-2-sulfonic acid [1-(4-amidrazono)benzyl-2-oxo-2-[4-(2-hydroxyethyl)-piperazinyl]-ethyl]amide]",
,9130 nM,"CCOc1ccccc1N1CCN(C(=O)[C@H](Cc2ccc(C(=N)NN)cc2)NS(=O)(=O)c2ccc3ccccc3c2)CC1 [Example 58, (S)-naphthalene-2-sulfonic acid [1-(4-amidrazono)benzyl-2-oxo-2-[4-(2-ethoxyphenyl)-piperazinyl]-ethyl]amide]",
,,N=C(N)c1ccc(CC(NC(=O)CNS(=O)(=O)c2ccc3ccccc3c2)C(=O)N2CCCCC2)cc1 (stereo not drawn) [NAPAP],thrombin inhibitory activity relative to activity for trypsin (selectivity) (thrombin over trypsin; literature): 50 times
,,N=C(N)N1CCC[C@@H](CNC(=O)C[C@H](NS(=O)(=O)c2ccc3ccccc3c2)C(=O)N(CC(=O)O)C2CC2)C1 [Ro 46-6240],"selectivity for thrombin over trypsin (thrombin over trypsin; literature (J. Med. Chem. 1994, 37, 3889-3901)): improved selectivity for thrombin over trypsin; possibility for oral administration ([4]; oral): does not show any possibility for oral administration; half-life in blood [4]: short half-life in blood"
,,"Gly-Pro-Arg-4-nitroanilide acetate [Chromozym TH, reference compound]","Km (bovine thrombin [2]; substrate of thrombin, constant enzyme concentration): 8.3 µM"
